Data reported in ChEMBL document CHEMBL5154652, “Design, synthesis and anti-hepatocellular carcinoma activity of 3-arylisoquinoline alkaloids” (Eur J Med Chem, 2022).

Legend:
Assay type in all cases: functional, cell-based
HCCLM9 = test: Antiproliferative activity against human HCCLM9 cells after 72 hrs by MTT assay; conditions: HCCLM9, 72 h
Huh-7 = test: Antiproliferative activity against human Huh-7 cells after 72 hrs by MTT assay; conditions: Huh-7, 72 h
SK-HEP1 = test: Antiproliferative activity against human SK-HEP1 cells after 72 hrs by MTT assay; conditions: SK-HEP1, 72 h
HepG2 = test: Antiproliferative activity against human HepG2 cells after 72 hrs by MTT assay; conditions: HepG2, 72 h
HT-29 = test: Antiproliferative activity against human HT-29 cells after 72 hrs by MTT assay; conditions: HT-29, 72 h
HCT-116 = test: Antiproliferative activity against human HCT-116 cells after 72 hrs by MTT assay; conditions: HCT-116, 72 h
RKO = test: Antiproliferative activity against human RKO cells after 72 hrs by MTT assay
SW480 = test: Antiproliferative activity against human SW480 cells after 72 hrs by MTT assay; conditions: SW480, 72 h
MCF7 = test: Antiproliferative activity against human MCF7 cells after 72 hrs by MTT assay; conditions: MCF7, 72 h
MDA-MB-231 = test: Antiproliferative activity against human MDA-MB-231 cells after 72 hrs by MTT assay; conditions: MDA-MB-231, 72 h
HGC-27 = test: Antiproliferative activity against human HGC-27 cells after 72 hrs by MTT assay; conditions: HGC-27, 72 h
SGC-7901 = test: Antiproliferative activity against human SGC-7901 cells after 72 hrs by MTT assay; conditions: SGC-7901, 72 h
BGC-823 = test: Antiproliferative activity against human BGC-823 cells after 72 hrs by MTT assay; conditions: BGC-823, 72 h
A549 = test: Antiproliferative activity against human A549 cells after 72 hrs by MTT assay; conditions: A549, 72 h
U-251 = test: Antiproliferative activity against human U-251 cells after 72 hrs by MTT assay; conditions: U-251, 72 h
HL-60 = test: Antiproliferative activity against human HL-60 cells after 72 hrs by MTT assay; conditions: HL-60, 72 h
L02 = test: Antiproliferative activity against human L02 cells after 72 hrs by MTT assay; conditions: L02, 72 h

Row | Structure (SMILES) | IC50 (HCCLM9) | IC50 (Huh-7) | IC50 (SK-HEP1) | IC50 (HepG2) | IC50 (HT-29) | IC50 (HCT-116) | IC50 (RKO) | IC50 (SW480) | IC50 (MCF7) | IC50 (MDA-MB-231) | IC50 (HGC-27) | IC50 (SGC-7901) | IC50 (BGC-823) | IC50 (A549) | IC50 (U-251) | IC50 (HL-60) | IC50 (L02)
1 | CN(C)CCCc1cc2c(cc1-c1cc3ccc4c(c3cn1)OCO4)OCO2 | 15.6 µM | 20 µM | 38.2 µM | 80.4 µM | 96.6 µM | > 150 µM | 126 µM | 40.6 µM | 60.4 µM | 35.6 µM | > 150 µM | 55.5 µM | 51.8 µM | 65.7 µM | 24.5 µM | 93.6 µM | > 150 µM
2 | CN(C)CCCCc1cc2c(cc1-c1cc3ccc4c(c3cn1)OCO4)OCO2 | 38.5 µM | 37.8 µM | 35.6 µM | 55.4 µM | 41.6 µM | 97 µM | 93.1 µM | 63.2 µM | 53.6 µM | 26.6 µM | 38.9 µM | 39 µM | 83.5 µM | 81.9 µM | 15 µM | – | –
3 | COCCc1cc(OC)c(OC)cc1-c1cc2ccc3c(c2cn1)OCO3 | > 150 µM | 77 µM | – | > 150 µM | > 150 µM | > 150 µM | > 150 µM | 105 µM | 32.4 µM | 128 µM | 120 µM | > 150 µM | > 150 µM | > 150 µM | > 150 µM | > 150 µM | > 150 µM
4 | CN(C)Cc1c(-c2cc3c4c(ccc3cn2)OCO4)ccc2c1OCO2 | 12.5 µM | 25.5 µM | – | 46.7 µM | 46.7 µM | – | 47 µM | 74.7 µM | – | – | – | – | – | – | – | – | > 150 µM
5 | CNCc1c(-c2cc3c4c(ccc3cn2)OCO4)ccc2c1OCO2 | 7.25 µM | 20.2 µM | – | 26.7 µM | 44.5 µM | 26.7 µM | 26.7 µM | 42.7 µM | – | – | – | – | – | – | – | – | 74.6 µM
6 | OCc1cc2c(cc1-c1cc3ccc4c(c3cn1)OCO4)OCO2 | 32.7 µM | 42.3 µM | – | – | 46.7 µM | 46.7 µM | 87.4 µM | 36.9 µM | – | – | – | – | – | – | – | – | –
7 | CNCCCc1cc2c(cc1-c1cc3ccc4c(c3cn1)OCO4)OCO2 | 20.4 µM | 19 µM | 22.2 µM | 35.7 µM | 41.1 µM | 80.9 µM | 106 µM | 29.4 µM | 42.8 µM | 39.5 µM | 73.2 µM | 41.6 µM | 44.9 µM | 52.1 µM | 27.7 µM | > 150 µM | 90.4 µM
8 | OCc1c(-c2cc3c4c(ccc3cn2)OCO4)ccc2c1OCO2 | > 150 µM | 40.8 µM | – | > 150 µM | > 150 µM | > 150 µM | > 150 µM | > 150 µM | – | – | – | – | – | – | – | – | > 150 µM
9 | CNCCc1cc2c(cc1-c1cc3ccc4c(c3cn1)OCO4)OCO2 | 10 µM | 15.5 µM | 28.2 µM | 45 µM | 23 µM | > 150 µM | 63.5 µM | 25.4 µM | 49.9 µM | 19.3 µM | 20.9 µM | – | 25.9 µM | – | 19.1 µM | 113 µM | > 150 µM
10 | CNCCc1cc(OC)c(OC)cc1-c1cc2ccc3c(c2cn1)OCO3 | 20.2 µM | 42.9 µM | 69.9 µM | – | 122 µM | > 150 µM | > 150 µM | 21.8 µM | 52.8 µM | 68.7 µM | 93.9 µM | > 150 µM | 15.8 µM | – | 43.3 µM | > 150 µM | > 150 µM
11 | CN(C)CCc1cc2c(cc1-c1cc3ccc4c(c3cn1)OCO4)OCO2 | 21 µM | 17.6 µM | 32.4 µM | 72.5 µM | > 150 µM | > 150 µM | > 150 µM | 36.3 µM | 61.7 µM | 30.2 µM | 78.5 µM | 45.1 µM | 33.6 µM | 65.2 µM | 28.5 µM | 130 µM | –
12 | CCOC(=O)N(C)CCc1cc2c(cc1-c1cc3ccc4c(c3cn1)OCO4)OCO2 | 25.1 µM | 19.2 µM | 103 µM | 27.3 µM | 96.6 µM | > 150 µM | 91.6 µM | 28.6 µM | 69.7 µM | 36.7 µM | 99.8 µM | 28.8 µM | 49.9 µM | > 150 µM | 51.8 µM | > 150 µM | 149 µM
13 | CN(C=O)CCc1cc2c(cc1-c1cc3ccc4c(c3cn1)OCO4)OCO2 | > 150 µM | 63.9 µM | 145 µM | 74 µM | > 150 µM | 86 µM | > 150 µM | > 150 µM | 130 µM | 60.9 µM | 69 µM | > 150 µM | 79.4 µM | 96 µM | 53.4 µM | > 150 µM | > 150 µM
14 | CNCCCCc1cc2c(cc1-c1cc3ccc4c(c3cn1)OCO4)OCO2 | 10.4 µM | 13.7 µM | 16 µM | 23.2 µM | 27.5 µM | 57.6 µM | 81.7 µM | 15.2 µM | 54.6 µM | 19.6 µM | 55.3 µM | 20 µM | 26.7 µM | 18.7 µM | 10.8 µM | – | –
15 | COc1cc(CCN(C)C)c(-c2cc3ccc4c(c3cn2)OCO4)cc1OC | 32.4 µM | 59.5 µM | – | > 150 µM | 146 µM | > 150 µM | > 150 µM | 40.6 µM | 94.6 µM | 103 µM | > 150 µM | 81.9 µM | 31.6 µM | > 150 µM | 65.1 µM | > 150 µM | > 150 µM
